Results from ChEMBL document CHEMBL5724806, “Unraveling interindividual differences and functional consequences of gut microbial metabolism of immunosuppressants” (2024).

Legend:
Assay type in all cases: ADME
[1] = (§1) The drug is tested on Bifidobacterium longum strain: DSM20088 for biotransformation under anaerobic condition. The drug concentrations were measured over 6 timepoints collected between 0 and 12 hours of incubation by liquid-chromatography-coupled mass spectrometry (LC–MS); set-up: dose 5 uM, timepoint 0, 1.5, 3, 6, 9, 12 hours; details: 5 µM
[2] = The drug is tested on Collinsella aerofaciens strain: DSM3979 for biotransformation under anaerobic condition. The drug concentrations were measured over 6 timepoints collected between 0 and 12 hours of incubation by liquid-chromatography-coupled mass spectrometry (LC–MS); set-up: dose 5 uM, timepoint 0, 1.5, 3, 6, 9, 12 hours; details: 5 µM
[3] = The drug is tested on Bacteroides caccae strain: DSM19024 for biotransformation under anaerobic condition. The drug concentrations were measured over 6 timepoints collected between 0 and 12 hours of incubation by liquid-chromatography-coupled mass spectrometry (LC–MS); set-up: dose 5 uM, timepoint 0, 1.5, 3, 6, 9, 12 hours; details: 5 µM
[4] = The drug is tested on Bacteroides stercoris strain: HM 1036 for biotransformation under anaerobic condition. The drug concentrations were measured over 6 timepoints collected between 0 and 12 hours of incubation by liquid-chromatography-coupled mass spectrometry (LC–MS); set-up: dose 5 uM, timepoint 0, 1.5, 3, 6, 9, 12 hours; details: 5 µM
[5] = The drug is tested on Parabacteroides distasonis strain: DSM20701 for biotransformation under anaerobic condition. The drug concentrations were measured over 6 timepoints collected between 0 and 12 hours of incubation by liquid-chromatography-coupled mass spectrometry (LC–MS); set-up: dose 5 uM, timepoint 0, 1.5, 3, 6, 9, 12 hours; details: 5 µM
[6] = The drug is tested on Coprococcus comes strain: ATCC27758 for biotransformation under anaerobic condition. The drug concentrations were measured over 6 timepoints collected between 0 and 12 hours of incubation by liquid-chromatography-coupled mass spectrometry (LC–MS); set-up: dose 5 uM, timepoint 0, 1.5, 3, 6, 9, 12 hours; details: 5 µM
[7] = The drug is tested on Eubacterium eligens strain: DSM3376 for biotransformation under anaerobic condition. The drug concentrations were measured over 6 timepoints collected between 0 and 12 hours of incubation by liquid-chromatography-coupled mass spectrometry (LC–MS); set-up: dose 5 uM, timepoint 0, 1.5, 3, 6, 9, 12 hours; details: lachnospira eligens, 5 µM
[8] = The drug is tested on Eubacterium hallii strain: DSM3353 for biotransformation under anaerobic condition. The drug concentrations were measured over 6 timepoints collected between 0 and 12 hours of incubation by liquid-chromatography-coupled mass spectrometry (LC–MS); set-up: dose 5 uM, timepoint 0, 1.5, 3, 6, 9, 12 hours; details: anaerobutyricum hallii, 5 µM
[9] = The drug is tested on Lactobacillus gasseri strain: DSM20243 for biotransformation under anaerobic condition. The drug concentrations were measured over 6 timepoints collected between 0 and 12 hours of incubation by liquid-chromatography-coupled mass spectrometry (LC–MS); set-up: dose 5 uM, timepoint 0, 1.5, 3, 6, 9, 12 hours; details: 5 µM
[10] = The drug is tested on Lactobacillus paracasei strain: ATCC27092 for biotransformation under anaerobic condition. The drug concentrations were measured over 6 timepoints collected between 0 and 12 hours of incubation by liquid-chromatography-coupled mass spectrometry (LC–MS); set-up: dose 5 uM, timepoint 0, 1.5, 3, 6, 9, 12 hours; details: lacticaseibacillus paracasei, 5 µM
[11] = The drug is tested on Ruminococcus gnavus strain: ATCC29149 for biotransformation under anaerobic condition. The drug concentrations were measured over 6 timepoints collected between 0 and 12 hours of incubation by liquid-chromatography-coupled mass spectrometry (LC–MS); set-up: dose 5 uM, timepoint 0, 1.5, 3, 6, 9, 12 hours; details: mediterraneibacter gnavus, 5 µM
[12] = The drug is tested on Streptococcus mitis strain: DSM12643 for biotransformation under anaerobic condition. The drug concentrations were measured over 6 timepoints collected between 0 and 12 hours of incubation by liquid-chromatography-coupled mass spectrometry (LC–MS); set-up: dose 5 uM, timepoint 0, 1.5, 3, 6, 9, 12 hours; details: 5 µM
[13] = The drug is tested on Streptococcus sanguinis strain: DSM20567 for biotransformation under anaerobic condition. The drug concentrations were measured over 6 timepoints collected between 0 and 12 hours of incubation by liquid-chromatography-coupled mass spectrometry (LC–MS); set-up: dose 5 uM, timepoint 0, 1.5, 3, 6, 9, 12 hours; details: 5 µM
[14] = (§2) The drug is tested on Gemella morbillorum strain: DSM20572 for biotransformation under microaerobic condition. The drug concentrations were measured over 6 timepoints collected between 0 and 12 hours of incubation by liquid-chromatography-coupled mass spectrometry (LC–MS); set-up: dose 5 uM, timepoint 0, 1.5, 3, 6, 9, 12 hours; details: 5 µM
[15] = The drug is tested on Lactobacillus gasseri strain: DSM20243 for biotransformation under microaerobic condition. The drug concentrations were measured over 6 timepoints collected between 0 and 12 hours of incubation by liquid-chromatography-coupled mass spectrometry (LC–MS); set-up: dose 5 uM, timepoint 0, 1.5, 3, 6, 9, 12 hours; details: 5 µM
[16] = The drug is tested on Lactobacillus paracasei strain: ATCC27092 for biotransformation under microaerobic condition. The drug concentrations were measured over 6 timepoints collected between 0 and 12 hours of incubation by liquid-chromatography-coupled mass spectrometry (LC–MS); set-up: dose 5 uM, timepoint 0, 1.5, 3, 6, 9, 12 hours; details: lacticaseibacillus paracasei, 5 µM
[17] = The drug is tested on Lactobacillus reuteri strain: DSM20016 for biotransformation under microaerobic condition. The drug concentrations were measured over 6 timepoints collected between 0 and 12 hours of incubation by liquid-chromatography-coupled mass spectrometry (LC–MS); set-up: dose 5 uM, timepoint 0, 1.5, 3, 6, 9, 12 hours; details: limosilactobacillus reuteri, 5 µM
[18] = The drug is tested on Streptococcus anginosus strain: DSM20563 for biotransformation under microaerobic condition. The drug concentrations were measured over 6 timepoints collected between 0 and 12 hours of incubation by liquid-chromatography-coupled mass spectrometry (LC–MS); set-up: dose 5 uM, timepoint 0, 1.5, 3, 6, 9, 12 hours; details: 5 µM
[19] = The drug is tested on Streptococcus salivarius strain: DSM20560 for biotransformation under microaerobic condition. The drug concentrations were measured over 6 timepoints collected between 0 and 12 hours of incubation by liquid-chromatography-coupled mass spectrometry (LC–MS); set-up: dose 5 uM, timepoint 0, 1.5, 3, 6, 9, 12 hours; details: 5 µM
[20] = as §1, with “the gut metagenome community of A-02 with ENA study accession number: PRJEB31790” for “Bifidobacterium longum strain: DSM20088”, “7” for “6”; set-up: dose 5 uM, timepoint 0, 0.75, 1.5, 3, 6, 9, 12 hours; details: 5 µM
[21] = as §1, with “the gut metagenome community of A-03 with ENA study accession number: PRJEB31790” for “Bifidobacterium longum strain: DSM20088”, “7” for “6”; set-up: dose 5 uM, timepoint 0, 0.75, 1.5, 3, 6, 9, 12 hours; details: 5 µM
[22] = as §1, with “the gut metagenome community of A-07 with ENA study accession number: PRJEB31790” for “Bifidobacterium longum strain: DSM20088”, “7” for “6”; set-up: dose 5 uM, timepoint 0, 0.75, 1.5, 3, 6, 9, 12 hours; details: 5 µM
[23] = as §1, with “the gut metagenome community of A-09 with ENA study accession number: PRJEB31790” for “Bifidobacterium longum strain: DSM20088”, “7” for “6”; set-up: dose 5 uM, timepoint 0, 0.75, 1.5, 3, 6, 9, 12 hours; details: 5 µM
[24] = as §1, with “the gut metagenome community of A-10 with ENA study accession number: PRJEB31790” for “Bifidobacterium longum strain: DSM20088”, “7” for “6”; set-up: dose 5 uM, timepoint 0, 0.75, 1.5, 3, 6, 9, 12 hours; details: 5 µM
[25] = as §1, with “the gut metagenome community of T-01 with ENA study accession number: PRJEB31790” for “Bifidobacterium longum strain: DSM20088”, “7” for “6”; set-up: dose 5 uM, timepoint 0, 0.75, 1.5, 3, 6, 9, 12 hours; details: 5 µM
[26] = as §2, with “the gut metagenome community of A-05 with ENA study accession number: PRJEB31790” for “Gemella morbillorum strain: DSM20572”, “7” for “6”; set-up: dose 5 uM, timepoint 0, 0.75, 1.5, 3, 6, 9, 12 hours; details: 5 µM
[27] = as §2, with “the gut metagenome community of A-08 with ENA study accession number: PRJEB31790” for “Gemella morbillorum strain: DSM20572”, “7” for “6”; set-up: dose 5 uM, timepoint 0, 0.75, 1.5, 3, 6, 9, 12 hours; details: 5 µM
[28] = as §2, with “the gut metagenome community of P-01 with ENA study accession number: PRJEB31790” for “Gemella morbillorum strain: DSM20572”, “7” for “6”; set-up: dose 5 uM, timepoint 0, 0.75, 1.5, 3, 6, 9, 12 hours; details: 5 µM
[29] = as §2, with “the gut metagenome community of P-04 with ENA study accession number: PRJEB31790” for “Gemella morbillorum strain: DSM20572”, “7” for “6”; set-up: dose 5 uM, timepoint 0, 0.75, 1.5, 3, 6, 9, 12 hours; details: 5 µM
[30] = as §2, with “the gut metagenome community of T-03 with ENA study accession number: PRJEB31790” for “Gemella morbillorum strain: DSM20572”, “7” for “6”; set-up: dose 5 uM, timepoint 0, 0.75, 1.5, 3, 6, 9, 12 hours; details: 5 µM

Row | Bacterial Biotransformation [1] | Bacterial Biotransformation [2] | Bacterial Biotransformation [3] | Bacterial Biotransformation [4] | Bacterial Biotransformation [5] | Bacterial Biotransformation [6] | Bacterial Biotransformation [7] | Bacterial Biotransformation [8] | Bacterial Biotransformation [9] | Bacterial Biotransformation [10] | Bacterial Biotransformation [11] | Bacterial Biotransformation [12] | Bacterial Biotransformation [13] | Bacterial Biotransformation [14] | Bacterial Biotransformation [15] | Bacterial Biotransformation [16] | Bacterial Biotransformation [17] | Bacterial Biotransformation [18] | Bacterial Biotransformation [19] | Bacterial Biotransformation [20] | SMILES | other results
1 | Compound NOT metabolized | Compound NOT metabolized | Compound NOT metabolized | Compound NOT metabolized | Compound NOT metabolized | Compound NOT metabolized | Compound NOT metabolized | Compound NOT metabolized | Compound NOT metabolized | Compound NOT metabolized | Compound NOT metabolized | Compound NOT metabolized | Compound NOT metabolized | Compound NOT metabolized | Compound NOT metabolized | Compound NOT metabolized | Compound NOT metabolized | Compound NOT metabolized | Compound NOT metabolized | Compound NOT metabolized | NS(=O)(=O)c1cc(C(=O)O)c(NCc2ccco2)cc1Cl [FUROSEMIDE] | Bacterial Biotransformation [21]: Compound NOT metabolized; Bacterial Biotransformation [22]: Compound NOT metabolized; Bacterial Biotransformation [23]: Compound NOT metabolized; Bacterial Biotransformation [24]: Compound NOT metabolized; Bacterial Biotransformation [25]: Compound NOT metabolized; Bacterial Biotransformation [26]: Compound NOT metabolized; Bacterial Biotransformation [27]: Compound NOT metabolized; Bacterial Biotransformation [28]: Compound NOT metabolized; Bacterial Biotransformation [29]: Compound NOT metabolized; Bacterial Biotransformation [30]: Compound NOT metabolized
2 | Compound metabolized | Compound metabolized | Compound metabolized | Compound metabolized | Compound metabolized | Compound metabolized | Compound metabolized | Compound metabolized | Compound metabolized | Compound NOT metabolized | Compound NOT metabolized | Compound NOT metabolized | Compound metabolized | Compound NOT metabolized | Compound NOT metabolized | Compound NOT metabolized | Compound NOT metabolized | Compound NOT metabolized | Compound NOT metabolized | Compound metabolized | CO[C@H]1C[C@@H]2CC[C@@H](C)[C@@](O)(O2)C(=O)C(=O)N2CCCC[C@H]2C(=O)O[C@H]([C@H](C)C[C@@H]2CC[C@@H](O)[C@H](OC)C2)CC(=O)[C@H](C)/C=C(\C)[C@@H](O)[C@@H](OC)C(=O)[C@H](C)C[C@H](C)/C=C/C=C/C=C/1C [SIROLIMUS] | Bacterial Biotransformation [21]: Compound metabolized; Bacterial Biotransformation [22]: Compound metabolized; Bacterial Biotransformation [23]: Compound metabolized; Bacterial Biotransformation [24]: Compound metabolized; Bacterial Biotransformation [25]: Compound NOT metabolized; Bacterial Biotransformation [26]: Compound metabolized; Bacterial Biotransformation [27]: Compound metabolized; Bacterial Biotransformation [28]: Compound NOT metabolized; Bacterial Biotransformation [29]: Compound NOT metabolized; Bacterial Biotransformation [30]: Compound NOT metabolized
